Assay results taken from patent US20100215822A1, “MOUTHFEEL ENHANCING INGREDIENTS” (Firmenich SA, priority 2007, published 2010).
Entries after “also recorded” stand apart in the source; their conditions may differ. Like-named read-outs stand apart in the source and are kept apart here. Each block holds one molecule with its values, some of them ahead of it.

How the values were obtained:
skilled panelists = test: Evaluation of the mouthfeel enhancer in Diet Cola, tasted blind by panel; type: in vivo; settings: for Results (mouthfeel, sweetness, off-notes and other descriptors): 5 mg in 300 mL commercial Diet Cola, tasted blind by 4-5 skilled panelists by comparison with Diet Cola without mouthfeel enhancer (reference); for Overall result: deliver the mouthfeel required in the reduced-sugar beverage without further generating undesirable off-notes: 5 mg in 300 mL Diet Cola
[1] = Solubility observed in Diet Cola samples
Procedure: 5 mg of each of the following compounds, all obtained from Avanti Polar Lipids, Inc., Alabama, USA was added to 300 mL of a commercially available Diet Cola in a bottle. The bottles were then closed and shaken by hand for 1 min at room temperature. Following this, the bottles were sonicated for 5 min in an ultrasonic bath and then stored at room temperature overnight. All samples were tasted blind by 4-5 skilled panelists and assessed, by comparison with a Diet Cola not containing any mouthfeel enhancer, for mouthfeel, sweetness, off-notes and other descriptors.

Molecule: CCCCCCCCCC(=O)OC[C@@H](O)COP(=O)([O-])OCC[N+](C)(C)C [1-Capryl-2-hydroxy-glycero-3-phosphocholine]
- Results (mouthfeel, sweetness, off-notes and other descriptors) (skilled panelists): slightly more mouthfeel, close to reference

Molecule: CCCCCCCC/C=C\CCCCCCCC(=O)OCC(O)COP(=O)(O)OCC(O)CO (stereo not shown) [1-Oleoyl-2-hydroxy-glycero-3-phosphoglycerol]
- Results (mouthfeel, sweetness, off-notes and other descriptors) (skilled panelists): less sour, more sweet, similar to reference

Molecule: CCCCCCCCCCCCCCCC(=O)OCC(O)COP(=O)(O)OCC(O)CO (stereo not shown) [1-Palmitoyl-2-hydroxy-glycero-3-phosphoglycerol]
- Results (mouthfeel, sweetness, off-notes and other descriptors) (skilled panelists): slightly more mouthfeel, creamy, similar to reference

Molecule: CCCCCC(=O)OCC(COP(=O)(O)O)OC(=O)CCCCC (stereo not shown) [Dicaproylphosphatidic acid]
- Results (mouthfeel, sweetness, off-notes and other descriptors) (skilled panelists): Thin, typical diet cola, slight metallic off-note, and sweet, acidic, more lemon, lingering/long lasting, and oily

Molecule: CCCCCC(=O)OC[C@H](COP(=O)(O)OCC[N+](C)(C)C)OC(=O)CCCCC [Dicaproylphosphatidyl choline]
- Overall result: deliver the mouthfeel required in the reduced-sugar beverage without further generating undesirable off-notes (skilled panelists): Excellent results
- Results (mouthfeel, sweetness, off-notes and other descriptors) (skilled panelists): More acidity than others, sweeter, smoother, fuller,; also recorded: more mouthfeel, similar mouthfeel

Molecule: CCCCCC(=O)OC[C@H](COP(=O)(O)OCCN)OC(=O)CCCCC [Dicaproylphosphatidyl ethanolamine]
- Results (mouthfeel, sweetness, off-notes and other descriptors) (skilled panelists): Quite metallic, slightly more fatty, sweet lingering,; also recorded: thin, less sweet, less flavor, lingering fatty taste;

Molecule: CCCCCCCC(=O)OC[C@H](COP(=O)([O-])OCC[N+](C)(C)C)OC(=O)CCCCCCC [Dicapryloylphosphatidylcholine]
- Results (mouthfeel, sweetness, off-notes and other descriptors) (skilled panelists): Some mouthfeel, similar to reference, slight off-note

Molecule: CCCCCCCCCCCC(=O)OC[C@H](COP(=O)(O)O)OC(=O)CCCCCCCCCCC [Dilauroylphosphatidic acid]
- Results (mouthfeel, sweetness, off-notes and other descriptors) (skilled panelists): More Mouthfeel, fatty, fuller, clean, acidic, more; also recorded: sour and harsh, oily

Molecule: CCCCCCCCCCCC(=O)OC[C@H](COP(=O)([O-])OCC[N+](C)(C)C)OC(=O)CCCCCCCCCCC [Dilauroylphosphatidyl choline]
- Overall result: deliver the mouthfeel required in the reduced-sugar beverage without further generating undesirable off-notes (skilled panelists): Excellent results

Molecule: CCCCCCCCCCCC(=O)OC[C@H](COP(=O)(O)OCCN)OC(=O)CCCCCCCCCCC [Dilauroylphosphatidyl ethanolamine]
- Results (mouthfeel, sweetness, off-notes and other descriptors) (skilled panelists): Very similar to reference, slightly fuller, sweeter,; also recorded: citrusy

Molecule: CCCCCCCCCCCC(=O)OCC(COP(=O)(O)OCC(O)CO)OC(=O)CCCCCCCCCCC (stereo not shown) [Dilauroylphosphatidyl glycerol]
- Results (mouthfeel, sweetness, off-notes and other descriptors) (skilled panelists): Sweeter, similar to reference, fatty, off-note, waxy,; also recorded: good sweetness, slightly flat aroma

Molecule: CCCCCCCCCCCCCC(=O)OC[C@H](COP(=O)([O-])OCC[N+](C)(C)C)OC(=O)CCCCCCCCCCCCC [Dimyristoylphosphatidylcholine]
- Overall result: deliver the mouthfeel required in the reduced-sugar beverage without further generating undesirable off-notes (skilled panelists): Excellent results
- Results (mouthfeel, sweetness, off-notes and other descriptors) (skilled panelists): carbonated, sweeter

Molecule: CCCCCCCC/C=C\CCCCCCCC(=O)OC[C@H](COP(=O)(O)O)OC(=O)CCCCCCC/C=C\CCCCCCCC [Dioleoylphosphatidic acid]
- Results (mouthfeel, sweetness, off-notes and other descriptors) (skilled panelists): More mouthfeel, fatty, fuller, very drying,; also recorded: mouthcoating, less lingering, oily

- Solubility in Diet Cola [1]: not completely soluble
Molecule: CCCCCCCC/C=C\CCCCCCCC(=O)OC[C@H](COP(=O)(O)OCCN)OC(=O)CCCCCCC/C=C\CCCCCCCC [Dioleoylphosphatidyl ethanolamine]
- Results (mouthfeel, sweetness, off-notes and other descriptors) (skilled panelists): Slightly sweeter, slightly more bitter, fatty/waxy off-

Molecule: CCCCCCCC/C=C\CCCCCCCC(=O)OC[C@H](COP(=O)(O)OCC(O)CO)OC(=O)CCCCCCC/C=C\CCCCCCCC (stereo partly shown) [Dioleoylphosphatidyl glycerol]
- Results (mouthfeel, sweetness, off-notes and other descriptors) (skilled panelists): chemical, slight off-note on taste

Molecule: CCCCCCCCCCCCCCCC(=O)OC[C@H](COP(=O)(O)O)OC(=O)CCCCCCCCCCCCCCC [Dipalmitoylphosphatidic acid]
- Overall result: deliver the mouthfeel required in the reduced-sugar beverage without further generating undesirable off-notes (skilled panelists): Excellent results
- Results (mouthfeel, sweetness, off-notes and other descriptors) (skilled panelists): smooth, good mouthfeel, slightly oily, no off-note; also recorded: More mouthfeel, fatty, fuller, heavy, sweeter,

Molecule: CCCCCCCCCCCCCCCC(=O)OC[C@H](COP(=O)([O-])OCC[N+](C)(C)C)OC(=O)CCCCCCCCCCCCCCC [Dipalmitoylphosphatidyl choline]
- Overall result: deliver the mouthfeel required in the reduced-sugar beverage without further generating undesirable off-notes (skilled panelists): Excellent results
- Results (mouthfeel, sweetness, off-notes and other descriptors) (skilled panelists): Sweeter, nice sweetness but lingering, good; also recorded: difference, slightly fuller, slightly fatty

- Solubility in Diet Cola ([1]; 5 mg in 300 mL Diet Cola, shaken 1 min, sonicated 5 min, stored at room temperature overnight): completely soluble
Molecule: CCCCCCCCCCCCCCCC(=O)OCC(COP(=O)(O)OCCN)OC(=O)CCCCCCCCCCCCCCC (stereo not shown) [Dipalmitoylphosphatidyl ethanolamine]
- Results (mouthfeel, sweetness, off-notes and other descriptors) (skilled panelists): less flavor, lingering fatty

Molecule: CCCCCCCCCCCCCCCC(=O)OCC(COP(=O)(O)OCC(O)CO)OC(=O)CCCCCCCCCCCCCCC (stereo not shown) [Dipalmitoylphosphatidyl glycerol]
- Overall result: deliver the mouthfeel required in the reduced-sugar beverage without further generating undesirable off-notes (skilled panelists): Excellent results
- Results (mouthfeel, sweetness, off-notes and other descriptors) (skilled panelists): Seems less carbonated, less acidic, more citrusy; also recorded: aroma, better mouthfeel, less metallic, good; also recorded: no off-note

Molecule: Dicaprylphosphatidylcholine
- Overall result: deliver the mouthfeel required in the reduced-sugar beverage without further generating undesirable off-notes (skilled panelists): Excellent results
- Results (mouthfeel, sweetness, off-notes and other descriptors) (skilled panelists): More mouthfeel, good mouthfeel, more body,; also recorded: creamy, sl. more sweet, good sweetness
